According to US9835629B2, “Methods and reagents for biomolecule labeling, enrichment and gentle elution” (Pierce Biotechnology, Inc., priority 2012, dated 2017):

Tests used:
anti-TMT™ antibody [1] = test: enrichment and elution of S-nitrosylated, iodoTMT-labeled peptides with anti-TMT antibody; design: species or system mice; details: in vitro S-nitrosylated cell lysate
Method: Peptides were washed with Tris buffered saline (TBS), […] detergent (Waters), or CHAPS detergent and eluted with 0.4% trifluoracetic acid (pH about 2), or washed with TBS and water prior to elution with DMP at the indicated concentrations and pH. Eluted peptides were analyzed by LC-MS/MS on a Thermo Scientific ORBITRAP XL and data was interpreted with Thermo Scientific PROTEOME DISCOVERER 1.3 to identify the eluted peptides and the number of iodoTMT labeled peptides specifically eluted (percentage shown above each bar). […] These peptide samples were enriched with the anti-TMT antibody, and samples of the load, the flowthrough, and the non-specific and specific elutions were assessed for peptide recovery and specificity.
The cysteine-reactive […] tags and affinity enrichment reagents are used for the enrichment, detection, and quantification of low abundance protein modifications. […] These peptide samples were then enriched with the anti-TMT™ antibody, and a sample of the load, the flowthrough, and the non-specific and specific elutions were assessed for peptide recovery and specificity (FIG. 4B). […]
For total cysteine alkylation, cell lysates and purified proteins were denatured, reduced, and labeled with excess iodoTMTzero or iodoTMTsixplex reagents prior to enzymatic digestion. […] Peptide samples were analyzed using a Thermo Scientific LTQ™ ORBITRAP XL mass spectrometer. […]

anti-TMT™ antibody [2] = test: surface plasmon resonance competitive elution of anti-TMT antibody bound to a TMT-labeled surface; type: binding, mice; details: washing in μM to mM concentrations, room temperature
Method: (§1) As the protein is labeled at nearly all amine sites, more sites on the protein are likely bound to the resin and more competitor reagent is necessary to elute the bound protein (FIG. 3B).
For total cysteine alkylation, cell lysates and purified proteins were denatured, reduced, and labeled with excess iodoTMTzero or iodoTMTsixplex reagents prior to enzymatic digestion. For cysteine S-nitrosylation quantitation, samples were treated with nitrosylation donor agents (e.g. GSH-NO) and alkylated with methyl methanethiosulfonate (MMTS) to block unmodified sulfhydryl groups. […] An anti-TMT antibody resin was used for labeled peptide enrichment. Peptide samples were analyzed using a Thermo Scientific LTQ™ ORBITRAP XL mass spectrometer. Data were analyzed using Thermo Scientific PROTEOME DISCOVERER 1.3 software. Elution buffer was evaluated by surface plasmon resonance (SPR) using a TMT-derivatized CM5 chip on a GE Healthcare BIACORE 3000 instrument.

Anti-TMT™ antibody resin = test: elution of TMT-labeled protein from anti-TMT antibody resin; design: species or system mice; details: micromolar to millimolar, intact protein labeled with amine-reactive TMT
Text: as §1

[3] = test system: anti-TMT immobilized antibody resin; test: elution of iodoTMT-labeled peptides of a cell lysate from anti-TMT resin, LC-MS/MS; design: species or system mice
Method: Peptides were washed with Tris buffered saline (TBS), […] detergent (Waters), or CHAPS detergent and eluted with 0.4% trifluoracetic acid (pH about 2), or washed with TBS and water prior to elution with DMP at the indicated concentrations and pH. Eluted peptides were analyzed by LC-MS/MS on a Thermo Scientific ORBITRAP XL and data was interpreted with Thermo Scientific PROTEOME DISCOVERER 1.3 to identify the eluted peptides and the number of iodoTMT labeled peptides specifically eluted (percentage shown above each bar). In FIG. 4B, a cell lysate was S-nitrosylated in vitro with nitroglutathione, the free thiols were irreversibly alkylated with iodoacetamide, the nitroso groups were reduced and selectively released with ascorbic acid, the newly exposed cysteines were irreversibly alkylated with iodoTMT, and the samples were then reduced to remove disulfide linkages, alkylated with iodoacetamide, and digested with trypsin. These peptide samples were enriched with the anti-TMT antibody, and samples of the load, the flowthrough, and the non-specific and specific elutions were assessed for peptide recovery and specificity.
Cell lysates were labeled with an irreversible cysteine-reactive iodoacetyl TMT® reagent, digested, and then captured with the anti-TMT™ resin. The bound peptides were eluted non-specifically with different pH and detergent conditions or specifically with different concentrations and pH of DMP elution reagent (FIG. 4A). […] As DMP is not a biological molecule, there is no interference from endogenous levels. In contrast, biotinylated molecules are more difficult to recover and may result in the enrichment of interfering endogenously biotinylated molecules.

[4] = iodoacetyl TMT-labeled cell lysate peptides

Compound: C[C@@H]1CCC[C@H](C)N1 [DMP, cis-2,6-dimethyl piperidine]
- more peptides yielded than a low pH elution (anti-TMT™ antibody [1]; specific elution): approximately 50%
- specificity of the enrichment of iodoTMT-labeled peptides (anti-TMT™ antibody [1]; specific elution (6% with low pH elution)): 21%
- elution of bound anti-TMT antibody from TMT-labeled surface (anti-TMT™ antibody [2]): elutes bound antibody within minutes
- elution of bound TMT-labeled protein from anti-TMT antibody resin (Anti-TMT™ antibody resin): efficiently eluted
- elution efficiency at high pH ([3]; 10 mM, high pH): even more efficient
- specificity of elution at high pH ([3]; 10 mM, high pH): lower specificity of elution
- number of peptides eluted versus non-specific elution conditions [3, 4]: over 100 times
- specificity of elution [3, 4]: greater than 90%
